In patent US7368578B2, “Five-membered heterocyclic compounds” (Takeda Pharmaceutical Company Limited, priority 2002, dated 2008) one finds inhibition data, which are given here for four compounds.

The structures appear in SMILES notation.

For the test, the target named is T1, human PPARγ1 (Homo sapiens, UniProt P37231).
T1 construct: expressed in transfected cells; host or cells: CHO-K1 cells stably transfected with pVgRXR2-hPPARγ and reporter plasmid pGL3-4ERPP-TK neo
T1 sequence (P37231 1-477 isoform P37231-2): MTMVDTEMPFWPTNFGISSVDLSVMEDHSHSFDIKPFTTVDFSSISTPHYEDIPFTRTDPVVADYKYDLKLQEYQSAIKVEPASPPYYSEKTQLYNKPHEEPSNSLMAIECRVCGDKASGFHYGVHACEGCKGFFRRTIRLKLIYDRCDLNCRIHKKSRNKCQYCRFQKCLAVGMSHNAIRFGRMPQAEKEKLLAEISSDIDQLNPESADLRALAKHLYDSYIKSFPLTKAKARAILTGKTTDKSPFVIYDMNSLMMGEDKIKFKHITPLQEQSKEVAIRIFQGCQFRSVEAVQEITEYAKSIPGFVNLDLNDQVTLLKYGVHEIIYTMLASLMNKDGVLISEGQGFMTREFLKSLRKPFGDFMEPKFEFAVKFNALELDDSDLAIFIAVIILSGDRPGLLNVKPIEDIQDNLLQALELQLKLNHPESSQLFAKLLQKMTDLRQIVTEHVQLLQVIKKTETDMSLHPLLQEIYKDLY
T1 sequence (P19793 1-462 partner): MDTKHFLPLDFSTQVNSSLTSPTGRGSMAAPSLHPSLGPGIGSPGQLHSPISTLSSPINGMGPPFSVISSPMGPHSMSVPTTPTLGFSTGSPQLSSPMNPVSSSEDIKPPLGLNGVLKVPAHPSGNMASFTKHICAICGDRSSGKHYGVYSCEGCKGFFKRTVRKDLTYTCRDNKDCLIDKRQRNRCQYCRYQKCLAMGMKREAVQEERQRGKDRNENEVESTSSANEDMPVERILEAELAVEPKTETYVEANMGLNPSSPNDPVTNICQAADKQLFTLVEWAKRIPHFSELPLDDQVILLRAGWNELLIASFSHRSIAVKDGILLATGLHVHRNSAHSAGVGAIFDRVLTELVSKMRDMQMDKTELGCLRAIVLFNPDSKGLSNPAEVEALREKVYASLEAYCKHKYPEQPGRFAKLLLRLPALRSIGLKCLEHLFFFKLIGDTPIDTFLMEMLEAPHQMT
Nature of the test: Human PPARγ1 antagonist assay (luciferase reporter in PPARγ:RXRα:4ERPP/CHO-K1 cells). In kind it is cell-based. The note with it: test compound 10^−6 M, 10 nM compound A as stimulant, luciferase activity, 24 hrs, read-out: Inhibitory rate (%).
For `COc1cc(COc2nn(-c3ccccc3)cc2/C=C/c2csc(C)n2)ccc1OCc1nc(-c2ccc(CC(=O)O)cc2)oc1C` [Example 357, {4-[4-({2-methoxy-4-[({4-[(E)-2-(2-methyl-1,3-thiazol-4-yl)ethenyl]-1-phenyl-1H-pyrazol-3-yl}oxy)methyl]phenoxy}methyl)-5-methyl-1,3-oxazol-2-yl]phenyl}acetic acid], the inhibition at 1 µM is 103%.
To `COc1cc(COc2nn(-c3ccccc3)cc2/C=C/c2csc(C(C)C)n2)ccc1OCc1nc(-c2ccc(CC(=O)O)cc2)oc1C` [Example 361, {4-[4-({4-[({4-[(E)-2-(2-isopropyl-1,3-thiazol-4-yl)ethenyl]-1-phenyl-1H-pyrazol-3-yl}oxy)methyl]-2-methoxyphenoxy}methyl)-5-methyl-1,3-oxazol-2-yl]phenyl}acetic acid] belongs 110%.
To `CCc1nc(/C=C/c2cn(-c3ccccc3)nc2OCc2ccc(OCc3nc(-c4ccc(CC(=O)O)cc4)oc3C)c(OC)c2)co1` [Example 369, {4-[4-({4-[({4-[(E)-2-(2-ethyl-1,3-oxazol-4-yl)ethenyl]-1-phenyl-1H-pyrazol-3-yl}oxy)methyl]-2-methoxyphenoxy}methyl)-5-methyl-1,3-oxazol-2-yl]phenyl}acetic acid] belongs 108%; to `COc1cc(COc2nn(-c3ccccc3)cc2/C=C/c2coc(C(C)C)n2)ccc1OCc1nc(-c2ccc(CC(=O)O)cc2)oc1C` [Example 370, {4-[4-({4-[({4-[(E)-2-(2-isopropyl-1,3-oxazol-4-yl)ethenyl]-1-phenyl-1H-pyrazol-3-yl}oxy)methyl]-2-methoxyphenoxy}methyl)-5-methyl-1,3-oxazol-2-yl]phenyl}acetic acid], 111%.
